Laboratory results taken from patent US20220177484A1, “MACROCYCLES WITH ANTIOXIDANT AND NEUROPROTECTIVE ACTIVITIES” (INSTITUTO BIOMAR, S.A, priority 2019, published 2022).

What was measured:
C57BL6/J male mice [1] = test: Rotarod test in 3-nitropropionic acid chemical model of Huntington's disease; type: in vivo; details: group II injected with GKK1032C and CL0670, once-daily 150 mg/kg for 3 days, plus 3-nitropropionic acid 50 mg/kg twice daily; after two administrations (FIG. 15)
Experimental: Compound I and CL0670 injections were performed at day 1 and day 2. 3-nitropropionic acid injections were performed at days 1, 1.5, 2, 2.5, 3 and 3.5. The shown data points were obtained 2 hours after the injections. p-value<0.05 vs. control (student's test).
A chemical model of Huntington's disease was conducted to evaluate the capacity of compound I and CL0670 in protecting neurons. This is achieved by intraperitoneal injection of 3-nitropropionic acid which induces neuronal oxidative stress by inhibiting the succinate dehydrogenase enzyme.
8-weeks old C57BL6/J male mice were divided into 4 groups.
Mice in group I (4 mice) were injected with GKK1032C and CL0670 (once-daily dose of 150 mg/kg for 3 days).
Mice in group II (5 mice) were injected with GKK1032C and CL0670 (once-daily dose of 150 mg/kg for 3 days) and with 3-nitropropionic acid (twice daily dose of 50 mg/kg for 3 days). In the case of group II, 3-nitropropionic acid was injected two hours and twelve hours after injection with GKK1032C and CL0670.
Mice in group III (5 mice) were injected with 3-nitropropionic acid (twice daily dose of 50 mg/kg for 3 days).
Mice in group IV (6 mice) were injected with vehicle only.
The mice were submitted to the rotarod test once-daily, 2 hours after the injections. […]

[2] = tested on: SH-SY5Y human neuroblastoma cells expressing mutated huntingtin (pEGFP-Q74); test: Mutated huntingtin aggregation in transfected SH-SY5Y cells; type: cell-based; details: 5 μM, 24 h
Experimental: Mutated huntingtin proteins aggregation are indicated by white arrows, GFP huntingtin protein (green) and β-tubulin (red). The images were acquired using the Operetta CLS automated confocal microscope, using the 40× water immersion objective.
SH-SY5Y human neuroblastoma cells were maintained in Dulbecco's modified Eagle's medium (DMEM) supplemented with 10% fetal bovine serum (FBS), 2 mM L-glutamine and 100 U/mL penicillin-0.1 mg/mL streptomycin at 37° C. and 5% CO2.
To study the effect of compounds on mutated huntingtin and synuclein that accumulates in cells, SH-SY5Y were transfected with a constitutively active mutated-huntingtin expression vector pEGFP-Q74 (encoding EGFP protein fused to a fragment of huntingtin corresponding to the exon 1 with 74 CAG repeats; c.54GCA[74]; Addgene; #40262) and EGFP-alphasynuclein-A53T (Addgene; #40823).
For transfection assays, cells were seeded (30×10^3 cells/cm^2) on 96-multiwell plates (coated with poliornitine-fibronectine). Cells were transfected with 0.3 μg pEGFP-Q74 plasmid using LTX with Plus Reagent according to the manufacturer's instructions (Thermo Fisher). After 24-h, the medium was changed with a new one, and cells were treated with increasing amounts of GKK1032C and CL0670 (0.1 μM, 1 μM and 5 μM) or DMSO (control cells) for 24 h at 37° C. […]

C57BL6/J male mice [3] = test: Stroke size after Middle Cerebral Artery occlusion (tetrazolium chloride); type: in vivo; details: for protection of the stroke volume caused by the Middle Cerebral Artery occlusion: GKK1032C and CL0670 10 mg/kg intravenously (FIG. 19); for percentage averaged stroke volume: mice treated with GKK1032C and CL0670 10 mg/kg intravenously after MCA occlusion, untreated ischemia ˜48%
From the text: FIG. 19 is the graphical representation of the volume of the cerebral stroke of mice submitted to Middle Cerebral Artery occlusion effect (empty bar) and of mice submitted to Middle Cerebral Artery occlusion and administration of Compound I and CL0670 (solid bar). *: p-value<0.05 vs. ischemia (student's test).
Middle Cerebral Artery occlusion involves temporarily or permanently restricting MCA blood flow to the cortex and striatum. The cerebral ischemic model of stroke is commonly used to assess ischemic injury in the brain. Occlusion of the middle cerebral artery (MCA) leads to a reduction of cerebral blood flow in both the striatum and the cortex. It is a highly reproducible model that results in brain damages similar to those occurring in human stroke.
Compounds GKK1032C and CL0670 were administered intravenously at a dose of 10 mg/kg. 11-week old C57BL6/J male mice were divided into 3 groups of 7 mice each: mice submitted to Middle Cerebral Artery occlusion (ischemia), mice submitted to Middle Cerebral Artery occlusion and administration of GKK1032C and CL0670.
All mice were firstly trained in the rotarod for 3 consecutive days. After this period, the mice were put to sleep with sevoflurane and submitted to surgery. Occlusion was performed by maintain the surgical filament occluding the middle cerebral artery for 30 minutes. Once removed, GKK1032C and CL0670 were injected at the jugular vein. 24 hours after reanimation, the animals were submitted to the rotarod test.
To compare the neuroprotective effect caused by GKK1032C and CL0670 to the motor coordination of mice and the cerebral damage caused by the chirurgical procedure, the animals were sacrificed, and the stroke size measured by visual inspection after treatment with tetrazolium chloride. […] The data confirms that GKK1032C and CL0670 are excellent neuroprotector agents against stroke.

[4] = tested on: rat cortical primary neurons; test: Protein concentration in neurons incubated with L-BSO and rotenone (neuronal death); type: cell-based; details: L-BSO and rotenone 3 or 6 h with compound at 0.1, 1 or 5 μg/ml; effect as from 0.1 μg/ml (6 h) (FIG. 4)
[5] = tested on: rat cortical primary neurons; test: H2O2 formation in cortical primary neurons treated with L-BSO and rotenone (Amplex Red); type: cell-based
Experimental: The data are presented as the mean values±[…] of the mean (SEM) from n=6 (i.e., 6 independent wells measured independently).
After this period, cells were again washed and determined the rate of H2O2 production during the next 2 h.

| SMILES | motor discoordination (rotarod) induced by 3-nitropropionic acid (C57BL6/J male mice [1]) | mutated huntingtin and number of aggregates [2] | protection of the stroke volume caused by the Middle Cerebral Artery occlusion (C57BL6/J male mice [3]) | percentage averaged stroke volume (C57BL6/J male mice [3]) | decrease in protein concentration remaining in the wells (neuronal death) [4] | rate of H2O2 formation by the neurons ([5]; L-BSO + rotenone 6 h, washed, then compound added at 1 and 5 μg/ml, H2O2 release recorded 2 h (FIG. 1)) | rate of H2O2 formation ([5]; compound 1 μg/ml together with L-BSO and rotenone for 6 h, washed, recorded 2 h (FIG. 2)) | H2O2 formation in untreated neurons ([5]; pre-treatment 5 μg/ml for 72 h, no L-BSO/rotenone (FIG. 3)) | L-BSO+rotenone-induced H2O2 formation ([5]; pre-treatment 5 μg/ml for 72 h, washed, then L-BSO and rotenone 6 h, recorded 2 h (FIG. 3)) |
| --- | --- | --- | --- | --- | --- | --- | --- | --- | --- |
| C=CC1(C)C=C(C)C2C3C(Oc4ccc(cc4)CC4C(=O)NC(O)C4C(=O)C31)C1C(C)CC(C)CC21C (stereo not drawn) [CL0670] | prevent partially | significantly decreased | roughly 18% | 39.5% |  |  |  |  |  |
| C=CC1(C)C=C(C)C2C3C(Oc4ccc(cc4)CC4(O)NC(=O)C5(OC45)C(=O)C31)C1C(C)CC(C)CC21C (stereo not drawn) [Compound I] | prevent partially |  | roughly 18% | 39.5% | dose-dependently prevented such decrease | dose-dependently decreased | significantly impaired | prevented | very significantly prevented |
